Measurements: patent US10577349B2 (Sanford Burnham Prebys Medical Discovery Institute, priority 2015, dated 2020)
≈ marks a conversion by molar mass, not a printed value. Where “and” joins values, the source holds several entries; their conditions need not be identical. Equal values may be shown once. Read-outs that look alike come from different tables or passages of the source.

Key:
A375 = assay: 48 h Cytotoxicity A375; assay type: cell-based; details: Homo sapiens, A-375
[1] = Aqueous Solubility in pION's buffer; assay type: physicochemical
[2] = Hepatic Microsome Stability Human; assay type: in vitro ADME
Compound 38 PK Study = assay type: in vivo, C57Bl/6J mice; details: male, C57Bl/6J, mouse, plasma
Experimental: Method: Fasted male C57Bl/6J mice were dosed with a 1 mg/mL solution of Compound 38 in 10% DMSO, 10% Tween-80 and 80% water by intravenous injection (2 mg/kg, as a 0.4 mg/mL solution), oral gavage (10 mg/kg as a 1 mg/mL solution) or intraperitoneal injection (10 mg/kg as a 1 mg/mL solution). Plasma was collected at various time points and analyzed by LC/MS/MS to determine compound levels.

[3] = Blood chemistry following Compound 38 IP administration; assay type: in vivo; details: Compound 38 1 mg/kg IP, individual mice #4-#6
From the text: The growth of A375 tumors in immunodeficient mice subjected to either BRAFi alone or BRAFi combined with Compound 38 was monitored in vivo. Compound 38 toxicity in mice was monitored by liver function (Table 5).

[4] = test system: UACC903 (BRAF mutant) cell line; assay: Reverse phase protein array analysis (RPPA), UACC903; assay type: cell-based, human; details: UACC903, 1 μM, 24 h
Experimental: UACC903 and WM1346 cells were treated with DMSO (controls) or 1 μM Compound 38 for 24 h in triplicate. Cells were lysed with lysis buffer (1% Triton X-100, 50 mM HEPES, pH 7.4, 150 mM NaCl, 1.5 mM MgCl2, 1 mM EGTA, 100 mM NaF, 10 mM Na pyrophosphate, 1 mM Na3VO4, 10% glycerol, with freshly added protease and phosphatase inhibitors) and centrifuged at 13,000 g for 20 minutes. Denatured protein lysates containing the same amount of protein were then subjected to RPPA analysis at the RPPA Core Facility, Md. Anderson Cancer Center, as previously described (Tibes. R., et al. Reverse phase protein array: validation of a novel proteomic technology and utility for analysis of primary leukemia specimens and hematopoietic stem cells. Molecular cancer therapeutics 5, 2512-2521 (2006)),
(§1) A reverse phase protein array (RPPA) analysis of BRAF- and NRAS-mutant melanomas was performed to identify protein networks affected by Compound 38 (Table 4).

[5] = test system: UACC903 and A375 cell lines; assay: Western blot validation of RPPA data; assay type: cell-based, human
Experimental: Cells were rinsed with PBS and lysed in culture plates with lysis buffer (50 mM Tris-HCl, pH 7.4, 150 mM NaCl, 1% NP-40, 1 mM EDTA, 10 μg/ml aprotinin, 1 μg/ml pepstatin A, 10 μg/ml leupeptin, 1 mM phenylmethylsulfonyl fluoride, and 1 mM sodium orthovanadate). Protein concentration was determined using Coomassie Plus Protein Assay Reagent (Thermo Scientific). Equal amounts of cell lysate proteins (50 μg) were resolved by SDS-PAGE and transferred to polyvinylidene difluoride membranes (PerkinElmer Life Sciences). Membranes were blocked with 5% BSA/TBST for 1 h and incubated with primary antibodies for 1 h at room temperate or overnight at 4° C., with shaking. Following three TBST washes, membranes were incubated for 1 h at room temperature with goat anti-rabbit Alexa Fluor 680 F(ab′)2 or goat anti-mouse IRDye 800 F(ab′)2 diluted 1:10,000. Bound antibodies were detected using the Odyssey Infrared Imaging System (LiCor Biosciences), or by exposing them to X-ray blue film.
as §1

[6] = test system: parental and BRAFi-resistant melanoma cultures (A375, WM793, Lu1205); assay: 2D growth and colony-forming efficiency in parental and BRAFi-resistant melanoma cultures; assay type: cell-based, human; details: parental (sensitive) and BRAFi-resistant cultures
Experimental: For the colony formation assay, cells were plated in triplicate at 500 cells/well in 6-well plates and grown for 16 h before compounds were added for 1-2 weeks, depending on cell line. Colonies were stained with Accustain Crystal Violet solution (Sigma-Aldrich) for 30 min. Plates were rinsed with water, and colonies (>50 cells per clone) were counted. Colony formation efficiency was calculated relative to the number of colonies in control (DMSO)-treated wells. For soft agar assays, melanoma cells were mixed with agar at a final concentration of 0.35% and layered on top of 0.7% agar in 6-well plates. Media supplemented with different compounds was added to plates and changed once per week. After 4 weeks, colonies were counted in 10 random high-power fields.
To confirm the effect of Compound 38 on the eIF4F complex in BRAFi resistant cultures on neoplastic growth, Compound 38 effectiveness on their two-dimensional (2D) growth in vitro was assessed. […] Parental and BRAFi-resistant NF1-mutant melanomas (A) were monitored for their response to Compound 38 at the indicated concentrations and for their ability to form CFE (B) (A375: FIG. 16A and FIG. 16B, WM793: FIG. 17A and FIG. 17B, Lu1205: FIG. 18A and FIG. 18B). Effectiveness of Compound 38 in NF1-mutant melanoma was further confirmed in primary cultures (FIG. 19A and FIG. 19B).

## O=C(/C=C/c1cncc(F)c1)c1c(-c2ccccc2)c2cc(Cl)ccc2[nH]c1=O [Compound 38, 6-Chloro-3-[3-(5-fluoro-pyridin-3-yl)-acryloyl]-4-phenyl-1H-quinolin-2-one]
A375
  IC50: < 2000 nM
[1]; aqueous buffer, pH 5.0, read-out: Aqueous Solubility in pION's buffer pH 5.0
  solubility: 6.5 µg/mL (≈ 16.1 µM)
[1]; pH 6.2, aqueous buffer, read-out: Aqueous Solubility in pION's buffer pH 6.2
  solubility: 6.6 µg/mL (≈ 16.3 µM)
[1]; pH 7.4, aqueous buffer, read-out: Aqueous Solubility in pION's buffer pH 7.4
  solubility: 5.5 µg/mL (≈ 13.6 µM)
[2]
  Hepatic Microsome Stability (% Remaining at 1 hr) Human: 24.12 % Remaining
[2]; no NADPH
  Hepatic Microsome Stability (% Remaining at 1 hr) Human (no NADPH): 57.84 % Remaining
Compound 38 PK Study
  half-life: 2.95 h
Compound 38 PK Study; IV 2 mg/kg
  clearance: 67 mL/min/kg
Compound 38 PK Study; oral gavage 10 mg/kg
  bioavailability: 20%
[3]
  CRE (Kidney): <18 µmol/L
[3]; 1 mg/kg
  ALB (Liver): 32 g/L (2×) and 34 g/L
  ALP (Liver): 88 μ/L and 54 μ/L and 24 μ/L
  ALT (Liver): 126 μ/L and >1000 μ/L and 152 μ/L
  AMY (Pancreas): 701 μ/L and 811 μ/L and 1625 μ/L
  BUN (Kidney): 7.5 mmol/L and 9.9 mmol/L and 7.9 mmol/L
  CA (Electrolytes): 2.25 mmol/L and 2.1 mmol/L and 2.14 mmol/L
  GLOB (Liver): 10 g/L and 11 g/L (2×)
  GLU (General metabolism): 17.6 mmol/L and 13.8 mmol/L and 16.5 mmol/L
  K^+ (Electrolytes): 5.5 mmol/L and 8 mmol/L and 6.5 mmol/L
  Na^+ (Electrolytes): 137 mmol/L (2×) and 146 mmol/L
  PHOS (Electrolytes): 2.4 mmol/L and 2.27 mmol/L and 1.64 mmol/L
  TBIL (Liver): 5 μmol/L and 4 μmol/L (2×)
  TP (Liver): 42 g/L and 44 g/L and 43 g/L
[4]
  Ratio [Compound 38/DMSO] A-Raf: 0.91
  Ratio [Compound 38/DMSO] AR: 0.92
  Ratio [Compound 38/DMSO] ATM: 0.79
  Ratio [Compound 38/DMSO] ATR: 0.84
  Ratio [Compound 38/DMSO] BRCA2: 0.96
  Ratio [Compound 38/DMSO] C-Raf: 0.92
  Ratio [Compound 38/DMSO] Chk1: 0.89
  Ratio [Compound 38/DMSO] Ets-1: 0.92
  Ratio [Compound 38/DMSO] GCN5L2: 0.88
  Ratio [Compound 38/DMSO] INPP4b: 0.93
  Ratio [Compound 38/DMSO] MSH6: 0.76
  Ratio [Compound 38/DMSO] PI3K-p85: 0.93
  Ratio [Compound 38/DMSO] PI3K-p110-alpha: 0.94
  Ratio [Compound 38/DMSO] Rad51: 0.93
  Ratio [Compound 38/DMSO] Raptor: 0.86
  Ratio [Compound 38/DMSO] Rictor_pT1135: 0.84
  Ratio [Compound 38/DMSO] S6_pS235_S236: 0.63
  Ratio [Compound 38/DMSO] S6_pS240_S244: 0.61
  Ratio [Compound 38/DMSO] Stat5a: 0.85
  Ratio [Compound 38/DMSO] Tuberin: 0.62
  Ratio [Compound 38/DMSO] YB1: 0.77
  Ratio [Compound 38/DMSO] c-Kit: 0.86
  Ratio [Compound 38/DMSO] c-Myc: 0.72
  Ratio [Compound 38/DMSO] mTOR: 0.90
  Ratio [Compound 38/DMSO] mTOR_pS2448: 0.72
  Ratio [Compound 38/DMSO] p70-S6K_pT389: 0.82
[5]
  Western blot: phosphorylation of S6, mTOR, P70S6K, TSC2 and 4E-BP1: dose dependent inhibitory effects
[6]
  Growth in 2D and colony-forming efficiency (CFE): effectively attenuated in both parental (sensitive) and resistant cultures
